In publication PMC9841525, “Chemical Blockage of the Mitochondrial Rhomboid Protease PARL by Novel Ketoamide Inhibitors Reveals Its Role in PINK1/Parkin-Dependent Mitophagy” (Journal of Medicinal Chemistry, 2022):
*1 amine or outer side, *2 acyl side, *3 side chain or, on linkers, in order; H or OH if unused. Where a SMILES comes first, the peptide text is derived from it. [ ]: non-standard residue; d: D form. The star is where a group is joined. NH(4-phenylbutyl) = c1ccc(CCCCN*)cc1; X1 = C[C@H](N[*:1])C(=O)C(=O)[*:2]

Legend:
PINK1 = PINK1 processing in HEK293 T-REx cells overexpressing PINK1, immunoblot; assay type: cell-based, human; settings: HEK293 T-REx cells overexpressing PINK1, 8 h
Method: Inducible stable Flp-In HEK293 T-REx cells expressing PINK1 were described previously.[33] HEK293 T-REx PINK1 and HEK293T cells were grown in DMEM (Gibco) supplemented with 10% (v/v) fetal bovine serum (ThermoFisher), 1% (v/v) GlutaMAX (Gibco), 1% (v/v) sodium pyruvate (Gibco), 125 μg/mL hygromycin (Invitrogen), and 10 μg/mL blasticidin (Gibco) or DMEM supplemented with 10% (v/v) fetal bovine serum, respectively, at 37 °C in 5% (v/v) CO2. For microscopy, cells were seeded on poly-L-lysine (Sigma)-coated slides. Transient plasmid transfections were performed using 25 kDa linear polyethylenimine (Polysciences). Plasmid (100 ng) encoding HA-Parkin-IRES-GFP, mito-mCherry or Parkin-mEGFP, or 500 ng plasmid encoding PGAM5-FLAG were used per 6-well. Total transfected DNA was 2 μg/well. For siRNA transfection, 2 × 10^5 cells were seeded per 6-well and on the next day transfected with 20 nM siRNA-oligonucleotide using lipofectamine RNAiMAX (ThermoFisher). Cells were analyzed 27 h post-transfection or five days post-siRNA-transfection. HEK293 T-REx PINK1 cells were induced with 0.3 μg/mL doxycycline for 24 h before further processing. […] For quantification, ImageJ was used (http://rsb.info.nih.gov/ij/). Immunoblots shown are representative of at least three independent experiments and were evaluated using Excel and GraphPad Prism 9 (GraphPad Software, Inc.).

Parkin = Parkin recruitment to mitochondria and mitochondrial morphology, fluorescence microscopy; assay type: cell-based, human; settings: HEK293 T-REx PINK1 cells, 3 h; 5 μM compound 5, CCCP or Antimycin A, vs DMSO
Method: Inducible stable Flp-In HEK293 T-REx cells expressing PINK1 were described previously.[33] HEK293 T-REx PINK1 and HEK293T cells were grown in DMEM (Gibco) supplemented with 10% (v/v) fetal bovine serum (ThermoFisher), 1% (v/v) GlutaMAX (Gibco), 1% (v/v) sodium pyruvate (Gibco), 125 μg/mL hygromycin (Invitrogen), and 10 μg/mL blasticidin (Gibco) or DMEM supplemented with 10% (v/v) fetal bovine serum, respectively, at 37 °C in 5% (v/v) CO2. For microscopy, cells were seeded on poly-L-lysine (Sigma)-coated slides. Transient plasmid transfections were performed using 25 kDa linear polyethylenimine (Polysciences). Plasmid (100 ng) encoding HA-Parkin-IRES-GFP, mito-mCherry or Parkin-mEGFP, or 500 ng plasmid encoding PGAM5-FLAG were used per 6-well. Total transfected DNA was 2 μg/well. For siRNA transfection, 2 × 10^5 cells were seeded per 6-well and on the next day transfected with 20 nM siRNA-oligonucleotide using lipofectamine RNAiMAX (ThermoFisher). Cells were analyzed 27 h post-transfection or five days post-siRNA-transfection. HEK293 T-REx PINK1 cells were induced with 0.3 μg/mL doxycycline for 24 h before further processing. Hoechst staining (1 μg/mL) was done immediately before adding treatment to the cells. Treatments were administered for the indicated times before processing; CCCP (Sigma) was always used as 10 μM for 3 h and Antimycin A (Sigma) as 30 μM for 3 h.
For fixation, cells were incubated for 15 min with 4% formaldehyde (16% formaldehyde diluted in PBS, Thermo Scientific) and washed in PBS. The cover glasses were mounted with Fluoromount-G (Southern Biotech) on microscope slides. […] Parkin recruitment events to the mitochondria were counted by hand throughout each z-stack and cell. […] JC-1 images were handled as summed intensity z-stack projections, as well as subjected to flatfield correction and subtraction of background before measuring the fluorescence levels normalized to the number of cell nuclei. The fluorescence intensity ratio between the red and green signal was calculated and compared to DMSO as a ratio of 1. Data were evaluated using Excel and GraphPad Prism 6.

Structure (SMILES): CC(=O)N[C@@H](C)C(=O)N[C@H](C(=O)N[C@@H](Cc1ccccc1)C(=O)N[C@@H](CC(C)C)C(=O)N[C@@H](C)C(=O)C(=O)NCCCCc1ccccc1)C(C)C [compound 5] (Ac-AVFL[X1]-{NH(4-phenylbutyl)})
- Effect on cleavage and stabilization of overexpressed PINK1 (PINK1): dose-dependent stabilization of PINK1–66
- Effect on cleavage and stabilization of overexpressed PINK1 (PINK1; listed as Compound 5): inhibits the PARL-cleavage of overexpressed PINK1 in a dose-dependent manner
- Recruitment of Parkin-mEGFP to mitochondria (microscopy) (Parkin): significant recruitment of mEGFP-tagged Parkin to the mitochondria
